Results reported in patent publication US8980888B2, “Pyrazole derivative” (Mochida Pharmaceutical Co., Ltd., priority 2013, dated 2015).

biological target: T1, Human PDE10 (Homo sapiens, UniProt Q9Y233); experiment: Human PDE10 inhibitory effect (IMAP TR-FRET enzyme inhibition assay); type: biochemical; conditions: PDE10 inhibitory activity, cAMP substrate
T1 construct: purchased BPA Bioscience (so in the source)
Method: (Evaluation of Enzyme Inhibitory Activity: Human PDE10 Inhibitory Effect)
IMAP TR-FRET Phosphodiersterase Evaluation Assay Kit (Molecular Device) was used for the measurement. Ten μL of a diluted test compound having each concentration and 5 μL of the enzyme PDE10 (BPA Bioscience) that had been diluted to 2 ng/mL with 1×IMAP Reaction Buffer (prepared with 5× included with the kit, 10 mM Tris-HCl, pH=7.2, 10 mM MgCl2, 0.05% NaN3, and 0.1% BSA) containing 0.1% BSA were added to a 384-well plate (Corning). The obtained mixture was then pre-incubated at room temperature for 5 minutes. Thereafter, 5 μL of cAMP substrate solution which was included with the kit and diluted to 400 nM with 1×IMAP Reaction Buffer containing 0.1% BSA, was added to the reaction solution, and the obtained mixture was reacted at room temperature for 60 minutes. Thereafter, 60 μL of an IMAP TR-FRET Binding solution included with the kit was further added to the reaction solution, and the obtained mixture was then left for 3 hours or more. Subsequently, using ARVO SX (PerkinElmer), the fluorescent intensity of Terbium (Emission=490 nm) and TR-FRET (Emission=520 nm) in the reaction solution were measured at an excitation wavelength of 340 nm, so as to calculate the amount of the generated 5′-AMP. The count of a well to which a solvent had been added instead of the test compound was set at 0%, and the count of a well to which the enzyme PDE10 had not been added was set at 100%. Thus, the inhibitory activity of each test compound was calculated.
The PDE10 inhibitory activity of the test compound was indicated with an IC50 value. […] The test compounds are shown in Table 3 (Table 3-1 and Table 3-2).

T1 sequence (Q9Y233 whole entry): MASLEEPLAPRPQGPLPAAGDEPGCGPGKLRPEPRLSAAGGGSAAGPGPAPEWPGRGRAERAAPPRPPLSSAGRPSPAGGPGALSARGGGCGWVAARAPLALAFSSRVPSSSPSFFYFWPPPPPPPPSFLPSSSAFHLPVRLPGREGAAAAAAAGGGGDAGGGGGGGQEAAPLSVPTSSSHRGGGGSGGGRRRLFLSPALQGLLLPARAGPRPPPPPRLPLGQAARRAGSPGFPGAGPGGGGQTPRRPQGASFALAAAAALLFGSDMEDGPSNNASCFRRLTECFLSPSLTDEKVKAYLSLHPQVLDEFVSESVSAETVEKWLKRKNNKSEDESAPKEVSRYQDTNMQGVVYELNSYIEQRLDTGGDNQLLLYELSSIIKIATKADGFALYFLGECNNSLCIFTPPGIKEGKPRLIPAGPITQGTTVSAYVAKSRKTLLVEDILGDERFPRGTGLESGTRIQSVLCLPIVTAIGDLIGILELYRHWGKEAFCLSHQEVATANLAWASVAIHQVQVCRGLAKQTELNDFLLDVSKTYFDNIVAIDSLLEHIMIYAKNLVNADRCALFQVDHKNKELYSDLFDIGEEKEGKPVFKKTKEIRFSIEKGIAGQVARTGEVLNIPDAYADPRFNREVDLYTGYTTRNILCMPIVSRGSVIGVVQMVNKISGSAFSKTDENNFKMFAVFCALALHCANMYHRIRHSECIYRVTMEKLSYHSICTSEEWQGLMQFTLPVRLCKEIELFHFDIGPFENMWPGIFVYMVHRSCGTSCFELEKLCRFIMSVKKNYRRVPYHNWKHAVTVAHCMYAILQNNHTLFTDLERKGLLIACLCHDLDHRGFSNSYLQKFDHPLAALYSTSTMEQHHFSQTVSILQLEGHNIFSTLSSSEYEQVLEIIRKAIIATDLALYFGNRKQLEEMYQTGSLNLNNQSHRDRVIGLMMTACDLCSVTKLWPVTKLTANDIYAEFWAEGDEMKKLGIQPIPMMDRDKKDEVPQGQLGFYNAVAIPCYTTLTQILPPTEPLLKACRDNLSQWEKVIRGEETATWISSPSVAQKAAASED

Q: How did the IC50 turn out when C[C@H]1CCCN1c1nc2cc(NC(=O)c3c(-c4nc(C(F)(F)F)cs4)cnn3C)ccn2n1 [Example 4.10] was run?
A: < 5 nM

Q: How did the IC50 turn out when C[C@H]1CCCN1c1nc2cc(NC(=O)c3c(-c4nc(C(F)F)cs4)cnn3C)ccn2n1 [Example 4.1, (S)-4-(4-(difluoromethyl)thiazol-2-yl)-1-methyl-N-(2-(2-methylpyrrolidin-1-yl)-[1,2,4]triazolo[1,5-a]pyridin-7-yl)-1H-pyrazole-5-carboxamide] was run?
A: < 5 nM

Q: For Cc1ccnc(-c2cnn(C)c2C(=O)NC2CCn3cc(-c4ccccc4)nc3C2)n1 (stereo not drawn) [Example 2.16, 1-methyl-4-(4-methylpyrimidin-2-yl)-N-(2-phenyl-5,6,7,8-tetrahydroimidazo[1,2-a]pyridin-7-yl)-1H-pyrazole-5-carboxamide], which IC50 is on record?
A: 5 to 100 nM

Q: How did the IC50 turn out when COc1ccnc(-c2cnn(C)c2C(=O)NC2CCn3nc(-c4ccccc4)nc3C2)c1 (stereo not drawn) [Example 5.25, 4-(4-methoxypyridin-2-yl)-1-methyl-N-(2-phenyl-5,6,7,8-tetrahydro-[1,2,4]triazolo[1,5-a]pyridin-7-yl)-1H-pyrazole-5-carboxamide] was run?
A: 5 to 100 nM

Q: How did the IC50 turn out when Cc1cc(-c2cnn(C)c2C(=O)Nc2cc3nc(-c4ccccc4)nn3cc2F)nc(C)n1 [Example 3.30, 4-(2,6-dimethylpyrimidin-4-yl)-N-(6-fluoro-2-phenyl-[1,2,4]triazolo[1,5-a]pyridin-7-yl)-1-methyl-1H-pyrazole-5-carboxamide] was run?
A: < 5 nM

Q: Which IC50 does the source give for CCc1nnc(-c2cnn(C)c2C(=O)NC2CCn3nc(-c4ccccc4)nc3C2)s1 (stereo not drawn) [Example 5.12, 4-(5-ethyl-1,3,4-thiadiazol-2-yl)-1-methyl-N-(2-phenyl-5,6,7,8-tetrahydro-[1,2,4]triazolo[1,5-a]pyridin-7-yl)-1H-pyrazole-5-carboxamide] here?
A: 5 to 100 nM

Q: For Cn1ncc(-c2nc(C(F)F)c(Cl)s2)c1C(=O)NC1CCn2nc(-c3cccc(F)c3)nc2C1 (stereo not drawn) [Example 5.37, 4-(5-chloro-4-(difluoromethyl)thiazol-2-yl)-N-(2-(3-fluorophenyl)-5,6,7,8-tetrahydro-[1,2,4]triazolo[1,5-a]pyridin-7-yl)-1-methyl-1H-pyrazole-5-carboxamide], which IC50 is on record?
A: 5 to 100 nM

Q: With Cc1nc(-c2cnn(C)c2C(=O)NC2CCn3nc(-c4ccccc4)nc3C2)sc1C1CC1 (stereo not drawn) [Example 5.38, 4-(5-cyclopropyl-4-methylthiazol-2-yl)-1-methyl-N-(2-phenyl-5,6,7,8-tetrahydro-[1,2,4]triazolo[1,5-a]pyridin-7-yl)-1H-pyrazole-5-carboxamide] as the molecule, how does the IC50 read?
A: 5 to 100 nM

Q: With Cc1cnc(-c2cnn(C)c2C(=O)Nc2cc3nc(-c4ccccc4)nn3cc2F)cn1 [Example 3.2, N-(6-fluoro-2-phenyl-[1,2,4]triazolo[1,5-a]pyridin-7-yl)-1-methyl-4-(5-methylpyrazin-2-yl)-1H-pyrazole-5-carboxamide] as the molecule, how does the IC50 read?
A: < 5 nM

Q: Cn1ncc(-c2nc(C(F)F)cs2)c1C(=O)NC1CCn2nc(-c3ccccc3F)nc2C1 (stereo not drawn) [Example 5.32, 4-(4-(difluoromethyl)thiazol-2-yl)-N-(2-(2-fluorophenyl)-5,6,7,8-tetrahydro-[1,2,4]triazolo[1,5-a]pyridin-7-yl)-1-methyl-1H-pyrazole-5-carboxamide] was tested. Which IC50 did it give?
A: 5 to 100 nM

Q: How did the IC50 turn out when Cc1ccc(-c2cnn(C)c2C(=O)NC2CCn3nc(-c4ccccc4)nc3C2)nc1 (stereo not drawn) [Example 5.26, 1-methyl-4-(5-methylpyridin-2-yl)-N-(2-phenyl-5,6,7,8-tetrahydro-[1,2,4]triazolo[1,5-a]pyridin-7-yl)-1H-pyrazole-5-carboxamide] was run?
A: 5 to 100 nM

Q: With Cn1ncc(-c2nc(C(F)F)c(C3CC3)s2)c1C(=O)NC1CCn2nc(-c3ccccc3)nc2C1 (stereo not drawn) [Example 5.8, 4-(5-cyclopropyl-4-(difluoromethyl)thylthiazol-2-yl)-1-methyl-N-(2-phenyl-5,6,7,8-tetrahydro-[1,2,4]triazolo[1,5-a]pyridin-7-yl)-1H-pyrazole-5-carboxamide] as the molecule, how does the IC50 read?
A: 5 to 100 nM

Q: Which IC50 does the source give for CC(=O)c1sc(C)nc1-c1cnn(C)c1C(=O)NC1CCn2nc(-c3cccc(F)c3)nc2C1 (stereo not drawn) [Example 5.44, 4-(5-acetyl-2-methylthiazol-4-yl)-N-(2-(3-fluorophenyl)-5,6,7,8-tetrahydro-[1,2,4]triazolo[1,5-a]pyridin-7-yl)-1-methyl-1H-pyrazole-5-carboxamide] here?
A: 5 to 100 nM

Q: Which IC50 does the source give for Cc1nc(-c2cnn(C)c2C(=O)NC2CCn3nc(-c4ccccc4)nc3C2)c(Br)s1 (stereo not drawn) [Example 5.13, 4-(5-bromo-2-methylthiazol-4-yl)-1-methyl-N-(2-phenyl-5,6,7,8-tetrahydro-[1,2,4]triazolo[1,5-a]pyridin-7-yl)-1H-pyrazole-5-carboxamide] here?
A: 5 to 100 nM

Q: How did the IC50 turn out when Cc1csc(-c2cnn(C)c2C(=O)NC2CCn3nc(-c4ccccc4)nc3C2)n1 (stereo not drawn) [Example 5.18, 1-methyl-4-(4-methylthiazol-2-yl)-N-(2-phenyl-5,6,7,8-tetrahydro-[1,2,4]triazolo[1,5-a]pyridin-7-yl)-1H-pyrazole-5-carboxamide] was run?
A: 5 to 100 nM

Q: Which IC50 does the source give for Cn1ncc(-c2nc(C(F)F)cs2)c1C(=O)NC1CCn2nc(-c3ccc(F)cc3)nc2C1 (stereo not drawn) [Example 5.2, 4-(4-(difluoromethyl)thiazol-2-yl)-N-(2-(4-fluorophenyl)-5,6,7,8-tetrahydro-[1,2,4]triazolo[1,5-a]pyridin-7-yl)-1-methyl-1H-pyrazole-5-carboxamide] here?
A: 5 to 100 nM

Q: Cc1cnc(C)c(-c2cnn(C)c2C(=O)NC2CCn3nc(-c4ccccc4)nc3C2)n1 (stereo not drawn) [Example 5.14, 4-(3,6-dimethylpyrazin-2-yl)-1-methyl-N-(2-phenyl-5,6,7,8-tetrahydro-[1,2,4]triazolo[1,5-a]pyridin-7-yl)-1H-pyrazole-5-carboxamide] was tested. Which IC50 did it give?
A: 5 to 100 nM

Q: For Cc1cccnc1-c1cnn(C)c1C(=O)NC1CCn2nc(-c3ccccc3)nc2C1 (stereo not drawn) [Example 5.22, 1-methyl-4-(3-methylpyridin-2-yl)-N-(2-phenyl-5,6,7,8-tetrahydro-[1,2,4]triazolo[1,5-a]pyridin-7-yl)-1H-pyrazole-5-carboxamide], which IC50 is on record?
A: 5 to 100 nM

Q: Which IC50 does the source give for C[C@H]1CCCN1c1nc2cc(NC(=O)c3c(-c4nc(C(F)F)c(Cl)s4)cnn3C)ccn2n1 [Example 4.2, (S)-4-(5-chloro-4-(difluoromethyl)thiazol-2-yl)-1-methyl-N-(2-(2-methylpyrrolidin-1-yl)-[1,2,4]triazolo[1,5-a]pyridin-7-yl)-1H-pyrazole-5-carboxamide] here?
A: < 5 nM

Q: Cn1ncc(-c2nc(C#N)cs2)c1C(=O)NC1CCn2nc(-c3ccccc3)nc2C1 (stereo not drawn) [Example 5.10, 4-(4-cyanothiazol-2-yl)-1-methyl-N-(2-phenyl-5,6,7,8-tetrahydro-[1,2,4]triazolo[1,5-a]pyridin-7-yl)-1H-pyrazole-5-carboxamide] was tested. Which IC50 did it give?
A: 5 to 100 nM

Q: Cn1ncc(-c2nc(C(F)F)c(C3CC3)s2)c1C(=O)NC1CCn2nc(-c3ccc(F)cc3)nc2C1 (stereo not drawn) [Example 5.35, 4-(5-cyclopropyl-4-(difluoromethyl)thiazol-2-yl)-N-(2-(4-fluorophenyl)-5,6,7,8-tetrahydro-[1,2,4]triazolo[1,5-a]pyridin-7-yl)-1-methyl-1H-pyrazole-5-carboxamide] was tested. Which IC50 did it give?
A: 5 to 100 nM

Q: How did the IC50 turn out when Cn1ncc(-c2nccs2)c1C(=O)NC1CCn2cc(-c3ccccc3)nc2C1 (stereo not drawn) [Example 2.26, 1-methyl-N-(2-phenyl-5,6,7,8-tetrahydroimidazo[1,2-a]pyridin-7-yl)-4-(thiazol-2-yl)-1H-pyrazole-5-carboxamide] was run?
A: 5 to 100 nM

Q: Which IC50 does the source give for Cn1ncc(-c2cc(F)ccn2)c1C(=O)NC1CCn2nc(-c3ccccc3)nc2C1 (stereo not drawn) [Example 5.23, 4-(4-fluoropyridin-2-yl)-1-methyl-N-(2-phenyl-5,6,7,8-tetrahydro-[1,2,4]triazolo[1,5-a]pyridin-7-yl)-1H-pyrazole-5-carboxamide] here?
A: 5 to 100 nM

Q: Cc1sc(-c2cnn(C)c2C(=O)NC2CCn3cc(-c4cccc(F)c4)nc3C2)nc1C(F)F (stereo not drawn) [Example 2.7, 4-(4-(difluoromethyl)-5-methylthiazol-2-yl)-N-(2-(3-fluorophenyl)-5,6,7,8-tetrahydroimidazo[1,2-a]pyridin-7-yl)-1-methyl-1H-pyrazole-5-carboxamide] was tested. Which IC50 did it give?
A: < 5 nM

Q: For COC[C@H]1CCCN1c1nc2n(n1)CCC(NC(=O)c1c(-c3nc(C(F)F)cs3)cnn1C)C2 (stereo partly drawn) [Example 5.16, 4-(4-(difluoromethyl)thiazol-2-yl)-N-(2-((R)-2-(methoxymethyl)pyrrolidin-1-yl)-5,6,7,8-tetrahydro-[1,2,4]triazolo[1,5-a]pyridin-7-yl)-1-methyl-1H-pyrazole-5-carboxamide], which IC50 is on record?
A: 5 to 100 nM

Q: How did the IC50 turn out when Cn1ncc(-c2nc(C#N)cs2)c1C(=O)NC1CCn2nc(-c3ccc(F)cc3)nc2C1 (stereo not drawn) [Example 5.41, 4-(4-cyanothiazol-2-yl)-N-(2-(4-fluorophenyl)-5,6,7,8-tetrahydro-[1,2,4]triazolo[1,5-a]pyridin-7-yl)-1-methyl-1H-pyrazole-5-carboxamide] was run?
A: 5 to 100 nM

Q: For Cn1ncc(-c2ccc(F)cn2)c1C(=O)NC1CCn2nc(-c3ccccc3)nc2C1 (stereo not drawn) [Example 5.24, 4-(5-fluoropyridin-2-yl)-1-methyl-N-(2-phenyl-5,6,7,8-tetrahydro-[1,2,4]triazolo[1,5-a]pyridin-7-yl)-1H-pyrazole-5-carboxamide], which IC50 is on record?
A: 5 to 100 nM
